Source: patent US11180462B2, “Microbiocidal oxadiazole derivatives” (SYNGENTA PARTICIPATIONS AG, priority 2015, dated 2021)

Assays:
[1] = tested on: Phakopsora Pachyrhizi; test: Fungicidal activity against Phakopsora pachyrhizi / soybean / leaf disc preventative (Asian soybean rust); format: in vivo; details: foliar, 200 ppm in the applied formulation, soybean leaf disks, compared to untreated control leaf disks, read-out: disease control
Method in brief: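 Preventative soybean leaf-disc test: discs on water agar sprayed with diluted formulated compound, inoculated one day later with spores on the lower surface. Held 24–36 h dark at 20°C, 75% rh, then 12 h light/day; percent disease control versus untreated discs scored 12–14 days after application.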

[2] = tested on: Puccinia recondita f. Sp. Tritici; test: Fungicidal activity against Puccinia recondita f. sp. tritici / wheat / leaf disc curative (brown rust); format: in vivo; details: foliar, 24 h, 200 ppm in the applied formulation, wheat leaf segments, curative (applied 1 day after inoculation), compared to untreated control leaf disks, read-out: disease control
Method in brief: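 Scoring is percent disease control relative to untreated segments, made 6 to 8 days after treatment. Wheat (cv. Kanzler) leaf segments received the formulated, water-diluted compound one day post-inoculation with spores, having been kept dark at 19° C and 75% RH, then incubated under 12 h light/12 h dark at the same temperature and humidity.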

[3] = tested on: Puccinia recondita f. Sp. Tritici; test: Fungicidal activity against Puccinia recondita f. sp. tritici / wheat / leaf disc preventative (brown rust); format: in vivo; details: foliar, 200 ppm in the applied formulation, wheat leaf segments, preventative, compared to untreated control leaf disks, read-out: disease control
Method in brief: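 Compound application precedes infection: segments of wheat cv. Kanzler, sprayed at 200 ppm, are inoculated with a spore suspension after 1 day. Incubation is at 19° C. with 75% relative humidity and 12 h light/12 h darkness, and control versus untreated leaves is rated 7 to 9 days post-application.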

[4] = tested on: Glomerella lagenarium (Colletotrichum lagenarium); test: Fungicidal activity against Glomerella lagenarium (Colletotrichum lagenarium) liquid culture / cucumber / preventative (anthracnose); format: cell-based; details: Colletotrichum orbiculare; 20 ppm in the applied formulation; liquid culture (PDB), growth inhibition measured photometrically after 3 to 4 days; compared to untreated control; read-out: disease control
Method in brief: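 Photometric read-out of fungal growth after 2–7 days, expressed as percent antifungal activity versus untreated check. Cryo-stored conidia in PDB; compound at 20 ppm; dark, 24 °C, 96% RH.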

CCC(C)N(Cc1ccc(-c2noc(C(F)(F)F)n2)cc1)C(=O)C(C)C (stereo not shown) [Compound 1.369, 2-methyl-N-sec-butyl-N-[[4-[5-(trifluoromethyl)-1,2,4-oxadiazol-3-yl]phenyl]methyl]-propanamide]
≥ 80%: pest or weed control at 200 ppm [1] | pest or weed control at 200 ppm [2] | pest or weed control at 200 ppm [3] | inhibition of growth at 20 ppm [4]

CCC(C)N(Cc1ccc(-c2noc(C(F)(F)F)n2)cc1)C(=O)COC (stereo not shown) [Compound 1.372, 2-methoxy-N-sec-bulyl-N-[[4-[5-(trifluoromethyl)-1,2,4-oxadiazol-3-yl]phenyl]methyl]-acetamide]
≥ 80%: pest or weed control at 200 ppm [1] | pest or weed control at 200 ppm [2] | pest or weed control at 200 ppm [3] | inhibition of growth at 20 ppm [4]

CCC(C)N(Cc1ccc(-c2noc(C(F)(F)F)n2)cc1)C(=O)CCOC (stereo not shown) [Compound 1.379, 3-methoxy-N-sec-butyl-N-[[4-[5-(trifluoromethyl)-1,2,4-oxadiazol-3-yl]phenyl]methyl]-propanamide]
≥ 80%: pest or weed control at 200 ppm [1] | pest or weed control at 200 ppm [2] | pest or weed control at 200 ppm [3] | inhibition of growth at 20 ppm [4]

CCC(C)N(Cc1ccc(-c2noc(C(F)(F)F)n2)cc1)C(=O)COCCOC (stereo not shown) [Compound 1.384, 2-(2-methoxyethoxy)-N-sec-butyl-N-[[4-[5-(trifluoromethyl)-1,2,4-oxadiazol-3-yl]phenyl]methyl]-acetamide]
≥ 80%: pest or weed control at 200 ppm [1] | pest or weed control at 200 ppm [2] | pest or weed control at 200 ppm [3] | inhibition of growth at 20 ppm [4]

C=CC(=O)N(Cc1ccc(-c2noc(C(F)(F)F)n2)cc1)C(C)CC (stereo not shown) [Compound 1.387, N-sec-butyl-N-[[4-[5-(trifluoromethyl)-1,2,4-oxadiazol-3-yl]phenyl]methyl]-prop-2-enamide]
≥ 80%: pest or weed control at 200 ppm [1] | pest or weed control at 200 ppm [2] | pest or weed control at 200 ppm [3] | inhibition of growth at 20 ppm [4]

CCC(=O)N(Cc1ccc(-c2noc(C(F)(F)F)n2)cc1)C(C)CC (stereo not shown) [Compound 1.389, N-sec-butyl-N-[[4-[5-(trifiuoromethyl)-1,2,4-oxadiazol-3-yl]phenyl]methyl]-propanamide]
≥ 80%: pest or weed control at 200 ppm [1] | pest or weed control at 200 ppm [2] | pest or weed control at 200 ppm [3] | inhibition of growth at 20 ppm [4]

C=C(C)C(=O)N(Cc1ccc(-c2noc(C(F)(F)F)n2)cc1)C(C)CC (stereo not shown) [Compound 1.390, 2-methyl-N-sec-butyl-N-[[4-[5-(trifluoromethyl)-1,2,4-oxadiazol-3-yl]phenyl]methyl]-prop-2-enamide]
≥ 80%: pest or weed control at 200 ppm [1] | pest or weed control at 200 ppm [2] | pest or weed control at 200 ppm [3] | inhibition of growth at 20 ppm [4]

CCC(C)N(Cc1ccc(-c2noc(C(F)(F)F)n2)cc1)C(=O)COC(C)=O (stereo not shown) [Compound 1.392, [2-oxo-2-[sec-butyl-[[4-[5-(trifluoromethyl)-1,2,4-oxadiazol-3-yl]phenyl]methyl]-amino]ethyl] acetate]
≥ 80%: pest or weed control at 200 ppm [1] | pest or weed control at 200 ppm [2] | pest or weed control at 200 ppm [3] | inhibition of growth at 20 ppm [4]

CCC(C)N(Cc1ccc(-c2noc(C(F)(F)F)n2)cc1)C(=O)C1(C)COC1 (stereo not shown) [Compound 1.395, 3-methyl-N-sec-butyl-N-[[4-[5-(trifluoromethyl)-1,2,4-oxadiazol-3-yl]phenyl]methyl]-oxetane-3-carboxamide]
≥ 80%: pest or weed control at 200 ppm [1] | pest or weed control at 200 ppm [2] | pest or weed control at 200 ppm [3] | inhibition of growth at 20 ppm [4]

CCC(C)N(Cc1ccc(-c2noc(C(F)(F)F)n2)cc1)C(=O)C1CCCO1 (stereo not shown) [Compound 1.398, N-sec-butyl-N-[[4-[5-(trifluoromethyl)-1,2,4-oxadiazol-3-yl]phenyl]methyl]-tetrahydrofuran-2-carboxamide]
≥ 80%: pest or weed control at 200 ppm [1] | pest or weed control at 200 ppm [2] | pest or weed control at 200 ppm [3] | inhibition of growth at 20 ppm [4]

CCC(C)N(Cc1ccc(-c2noc(C(F)(F)F)n2)cc1)C(=O)C1(C#N)CC1 (stereo not shown) [Compound 1.399, 1-cyano-N-sec-butyl-N-[[4-[5-(trifluoromethyl)-1,2,4-oxadiazol-3-yl]phenyl]methyl]-cyclopropane-carboxamide]
≥ 80%: pest or weed control at 200 ppm [1] | pest or weed control at 200 ppm [2] | pest or weed control at 200 ppm [3] | inhibition of growth at 20 ppm [4]

CCC(C)N(Cc1ccc(-c2noc(C(F)(F)F)n2)cc1)C(=O)C1CC1F (stereo not shown) [Compound 1.401, 2-fluoro-N-sec-butyl-N-[[4-[5-(trifluoromethyl)-1,2,4-oxadiazol-3-yl]phenyl]methyl]-cyclopropane-carboxamide]
≥ 80%: pest or weed control at 200 ppm [1] | pest or weed control at 200 ppm [2] | pest or weed control at 200 ppm [3] | inhibition of growth at 20 ppm [4]

CCC(C)N(Cc1ccc(-c2noc(C(F)(F)F)n2)cc1)C(=O)C(C)OC (stereo not shown) [Compound 1.402, 2-methoxy-N-sec-butyl-N-[[4-(5-(trifluoromethyl)-1,2,4-oxadiazol-3-yl]phenyl]methyl]-propanamide]
≥ 80%: pest or weed control at 200 ppm [1] | pest or weed control at 200 ppm [2] | pest or weed control at 200 ppm [3] | inhibition of growth at 20 ppm [4]

CCC(C)N(Cc1ccc(-c2noc(C(F)(F)F)n2)cc1)C(=O)C1OCCO1 (stereo not shown) [Compound 1.403, N-sec-butyl-N-[[4-[5-(trifluoromethyl)-1,2,4-oxadiazol-3-yl]phenyl]methyl]-1,3-dioxolane-2-carboxamide]
≥ 80%: pest or weed control at 200 ppm [1] | pest or weed control at 200 ppm [2] | pest or weed control at 200 ppm [3] | inhibition of growth at 20 ppm [4]

CCC(C)N(Cc1ccc(-c2noc(C(F)(F)F)n2)cc1)C(=O)CC(F)(F)F (stereo not shown) [Compound 1.404]
≥ 80%: pest or weed control at 200 ppm [1] | pest or weed control at 200 ppm [2] | pest or weed control at 200 ppm [3] | inhibition of growth at 20 ppm [4]

CCC(C)N(Cc1ccc(-c2noc(C(F)(F)F)n2)cc1)C(C)=O (stereo not shown) [Compound 1.407, N-sec-butyl-N-[[4-[5-(trifluoromethyl)-1,2,4-oxadiazol-3-yl]phenyl]methyl]-acetamide]
≥ 80%: pest or weed control at 200 ppm [1] | pest or weed control at 200 ppm [2] | pest or weed control at 200 ppm [3] | inhibition of growth at 20 ppm [4]

CCC(C)N(Cc1ccc(-c2noc(C(F)(F)F)n2)cc1)C(=O)CCCOC (stereo not shown) [Compound 1.408, 4-methoxy-N-sec-butyl-N-[[4-[5-(trifluoromethyl)-1,2,4-oxadiazol-3-yl]phenyl]methyl]-butanamide]
≥ 80%: pest or weed control at 200 ppm [1] | pest or weed control at 200 ppm [2] | pest or weed control at 200 ppm [3] | inhibition of growth at 20 ppm [4]

CC(C)C(=O)N(Cc1ccc(-c2noc(C(F)(F)F)n2)cc1)CC1CCCO1 (stereo not shown) [Compound 1.412, 2-methyl-N-(tetrahydrofuran-2-ylmethyl)-N-[[4-[5-(trifluoromethyl)-1,2,4-oxadiazol-3-yl]phenyl]methyl]-propanamide]
≥ 80%: pest or weed control at 200 ppm [1] | pest or weed control at 200 ppm [2] | pest or weed control at 200 ppm [3] | inhibition of growth at 20 ppm [4]

CCC(=O)N(Cc1ccc(-c2noc(C(F)(F)F)n2)cc1)CC1CCCO1 (stereo not shown) [Compound 1.432, N-(tetrahydrofuran-2-ylmethyl)-N-[[4-[5-(trifluoromethyl)-1,2,4-oxadiazol-3-yl]phenyl]methyl]-propanamide]
≥ 80%: pest or weed control at 200 ppm [1] | pest or weed control at 200 ppm [2] | pest or weed control at 200 ppm [3] | inhibition of growth at 20 ppm [4]
